The values that follow are results of earlier work, collected in US20090054334A1, “Combinatorial improvement of bifunctional drug properties” (priority 2007, published 2009).

Each structure is given as a SMILES string.

For data set [1] the following is noted: in vivo.
For data set [2] the following is noted: in vivo. This is another data set of the same source.

For `CCC(C)(C)C(=O)C(=O)N1CCC[C@H]1C(=O)O` [GPI-1485], in data set [1], the bioavailability is on record as 50% and the blood-brain barrier crossing entry is listed as “crosses the blood-brain barrier”.
With `C=CC[C@@H]1/C=C(\C)C[C@H](C)C[C@H](OC)[C@H]2O[C@@](O)(C(=O)C(=O)N3CCCC[C@H]3C(=O)O[C@H](/C(C)=C/[C@@H]3CC[C@@H](O)[C@H](OC)C3)[C@H](C)[C@@H](O)CC1=O)[C@H](C)C[C@@H]2OC` [FK506], in data set [2], the “distribution into protected cellular compartments, in the blood” value is 72-98%. Moreover, in data set [1], the bioavailability is 20% and the half life was 11.3 h.
